Assay results reported in ChEMBL document CHEMBL3045214, “Pest-managing efficacy of trans-asarone isolated from Daucus carota L. seeds” (2002).
Activity calls are given as the source filed them. The calls are words filed in the database; no cut-off is given here.

Assays:
Manduca sexta = experiment: Antifeedant activity against Manduca sexta at 100 ug/ml after 6 days; format: functional
Aedes aegypti [1] = experiment: Mosquitocidal activity against fourth-instar larvae of Aedes aegypti assessed as mortality after 24 hr; format: functional, organism-based
Heliothis virescens = experiment: Antifeedant activity against Heliothis virescens (tobacco budworm) at 100 ug/ml after 6 days; format: functional
Aspergillus parasiticus = experiment: Antimicrobial activity against Aspergillus parasiticus at 100 ug/ml after 72 hr; format: functional, organism-based
Aspergillus flavus = experiment: Antimicrobial activity against Aspergillus flavus at 100 ug/ml after 72 hr; format: functional, organism-based
Staphylococcus aureus = experiment: Antimicrobial activity against Staphylococcus aureus at 100 ug/ml after 72 hr; format: functional, organism-based
Escherichia coli = experiment: Antimicrobial activity against Escherichia coli at 100 ug/ml after 72 hr; format: functional, organism-based
Helicoverpa zea = experiment: Antifeedant activity against Helicoverpa zea (corn earworm) at 100 ug/ml after 6 days; format: functional
Panagrellus redivivus = experiment: Nematicidal activity against Panagrellus redivivus assessed as mortality at 100 ug/ml after 24 hr by microscopic analysis; format: functional
Candida albicans = experiment: Antimicrobial activity against Candida albicans at 100 ug/ml after 72 hr; format: functional
Candida parapsilosis = experiment: Antimicrobial activity against Candida parapsilosis at 100 ug/ml after 72 hr; format: functional
Fusarium oxysporum = experiment: Antimicrobial activity against Fusarium oxysporum at 100 ug/ml after 72 hr; format: functional, organism-based
Pichia kudriavzevii = experiment: Antimicrobial activity against Pichia kudriavzevii at 100 ug/ml after 72 hr; format: functional
Caenorhabditis elegans = experiment: Nematicidal activity against Caenorhabditis elegans assessed as mortality at 100 ug/ml after 24 hr by microscopic analysis; format: functional
[2] = tested on: Staphylococcus epidermidis; experiment: Antimicrobial activity against Staphylococcus epidermidis at 100 ug/ml after 72 hr; format: functional, organism-based
Aedes aegypti [3] = experiment: Mosquitocidal activity against fourth-instar larvae of Aedes aegypti assessed as mortality at 100 ug/ml after 24 hr; format: functional
Aedes aegypti [4] = experiment: Mosquitocidal activity against fourth-instar larvae of Aedes aegypti assessed as mortality at 200 ug/ml after 24 hr; format: functional

SMILES: CC(C)=CCC/C(C)=C/CO
- Activity (Manduca sexta): inactive
- mortality (Aedes aegypti [1]): inactive
- Activity (Heliothis virescens): inactive
- Activity (Aspergillus parasiticus): inactive
- Activity (Aspergillus flavus): inactive
- Activity (Staphylococcus aureus): inactive
- Activity (Escherichia coli): inactive
- Activity (Helicoverpa zea): inactive
- mortality (Panagrellus redivivus): inactive
- inhibition zone (IZ) (Candida albicans): inactive
- inhibition zone (IZ) (Candida parapsilosis): inactive
- Activity (Fusarium oxysporum): inactive
- inhibition zone (IZ) (Pichia kudriavzevii): inactive
- mortality (Caenorhabditis elegans): inactive
- Activity [2]: inactive

SMILES: COc1cc(OC)c(OC)cc1C=O
- Activity (Manduca sexta): inactive
- mortality (Aedes aegypti [1]): inactive
- Activity (Heliothis virescens): inactive
- Activity (Aspergillus parasiticus): inactive
- Activity (Aspergillus flavus): inactive
- Activity (Staphylococcus aureus): inactive
- Activity (Escherichia coli): inactive
- Activity (Helicoverpa zea): inactive
- mortality (Panagrellus redivivus): inactive
- inhibition zone (IZ) (Candida albicans): inactive
- inhibition zone (IZ) (Candida parapsilosis): inactive
- Activity (Fusarium oxysporum): inactive
- inhibition zone (IZ) (Pichia kudriavzevii): inactive
- mortality (Caenorhabditis elegans): inactive
- Activity [2]: inactive

SMILES: C/C=C/c1cc(OC)c(OC)cc1OC [TRANS-ASARONE]
- Activity (Manduca sexta): 79%
- mortality (Aedes aegypti [1]): Active
- Activity (Heliothis virescens): 96%
- Activity (Aspergillus parasiticus): inactive
- Activity (Aspergillus flavus): inactive
- mortality at 100 µg/mL (Aedes aegypti [3]): 43%
- Activity (Staphylococcus aureus): inactive
- Activity (Escherichia coli): inactive
- Activity (Helicoverpa zea): 97%
- mortality at 100 µg/mL (Panagrellus redivivus): 100%
- zone of inhibition at 100 µg/mL (Candida albicans; read-out: IZ): 6 mm
- zone of inhibition at 100 µg/mL (Candida parapsilosis; Lodderomyces parapsilosis, read-out: IZ): 6 mm
- Activity (Fusarium oxysporum): inactive
- zone of inhibition at 100 µg/mL (Pichia kudriavzevii; read-out: IZ): 7 mm
- mortality at 100 µg/mL (Caenorhabditis elegans): 100%
- mortality at 200 µg/mL (Aedes aegypti [4]): 100%
- Activity [2]: inactive

SMILES: CCCCCCCC/C=C\CCCCCCCC(=O)O
- mortality (Aedes aegypti [1]): inactive
- Activity (Aspergillus parasiticus): inactive
- Activity (Aspergillus flavus): inactive
- Activity (Staphylococcus aureus): inactive
- Activity (Escherichia coli): inactive
- mortality (Panagrellus redivivus): inactive
- inhibition zone (IZ) (Candida albicans): inactive
- inhibition zone (IZ) (Candida parapsilosis): inactive
- Activity (Fusarium oxysporum): inactive
- inhibition zone (IZ) (Pichia kudriavzevii): inactive
- mortality (Caenorhabditis elegans): inactive
- Activity [2]: inactive
